Assay results published in patent publication US20230416232A1, “PYRIMIDINE COMPOUNDS, COMPOSITIONS, AND MEDICINAL APPLICATIONS THEREOF” (Blueprint Medicines Corporation, priority 2020, published 2023).

Experiments:
Format in all cases: cell-based
A431 cells = assay: Cellular proliferation (Alamar Blue) assay, A431 cells; settings: Homo sapiens, A-431, 72 h, A431 cells; 72 hr; Alamar Blue; read-out: A431 IC50
Protocol: (§1) • 1. Seed cells at 5000 for A431 and 15,000 cells for Ba/F3 in 100 μL/well in complete media (for A431: DMEM with 10% FBS and for Ba/F3 cells: RPMI with 10% FBS) in 96-well tissue culture plate. Leave outer wells without cells for background measurements. Incubate at 37 degree Celsius in 5% CO2 humidified incubator for 16-18 hours. • 2. Add 0.025 ml of 5X concentration compound dilution or DMSO control. Final compound concentration range is 10-0.0005 μM prepared in 3-fold serial dilutions. Incubate for 72 hr at 37 degree Celsius in 5% CO2 humidified incubator. • 3. Add 0.0125 ml Alamar Blue™ reagent to each well with multi-channel pipette and tap gently on each side of the plate to mix. Incubate for 3 hours at 37 degree Celsius in 5% CO2 humidified incubator. • 4. […] Data analysis was performed using XLfit 5.5.0.5.

[1] = target: EGFR(D770_N771insSVD) expressing Ba/F3 stable cell line (Homo sapiens, UniProt P00533, DUP768-770, cells depend on it); assay: Cellular proliferation (Alamar Blue) assay, EGFR(D770_N771insSVD) Ba/F3; settings: 72 hr, read-out: D770 IC50
Protocol: (§2) Cell line details: • 1. EGFR(D770_N771insSVD) expressing Ba/F3 stable cell line • 2. EGFR (A767_dupASV) expressing Ba/F3 stable cell line • 3. A431 cells • 4. EGFR (H773insNPH) expressing Ba/F3 stable cell line • 5. HER2 (A775_G776insYVMA) expressing Ba/F3 stable cell line
as §1

[2] = target: HER2 (A775_G776insYVMA) expressing Ba/F3 stable cell line (Homo sapiens, UniProt P04626, DUP772-775, cells depend on it); assay: Cellular proliferation (Alamar Blue) assay, HER2 (A775_G776insYVMA) Ba/F3; settings: HER2 (A775_G776insYVMA) Ba/F3 cells; 72 hr; Alamar Blue; read-out: YVMA IC50
Protocol: as §2, §1

[3] = target: EGFR (A767_dupASV) expressing Ba/F3 stable cell line (Homo sapiens, UniProt P00533, DUP767-769, cells depend on it); assay: Cellular proliferation (Alamar Blue) assay, EGFR (A767_dupASV) Ba/F3; settings: 72 hr, read-out: A767 IC50
Protocol: as §2, §1

Chain of HER2 (A775_G776insYVMA) expressing Ba/F3 stable cell line (P04626 with tags, fused parts or gaps DUP772-775): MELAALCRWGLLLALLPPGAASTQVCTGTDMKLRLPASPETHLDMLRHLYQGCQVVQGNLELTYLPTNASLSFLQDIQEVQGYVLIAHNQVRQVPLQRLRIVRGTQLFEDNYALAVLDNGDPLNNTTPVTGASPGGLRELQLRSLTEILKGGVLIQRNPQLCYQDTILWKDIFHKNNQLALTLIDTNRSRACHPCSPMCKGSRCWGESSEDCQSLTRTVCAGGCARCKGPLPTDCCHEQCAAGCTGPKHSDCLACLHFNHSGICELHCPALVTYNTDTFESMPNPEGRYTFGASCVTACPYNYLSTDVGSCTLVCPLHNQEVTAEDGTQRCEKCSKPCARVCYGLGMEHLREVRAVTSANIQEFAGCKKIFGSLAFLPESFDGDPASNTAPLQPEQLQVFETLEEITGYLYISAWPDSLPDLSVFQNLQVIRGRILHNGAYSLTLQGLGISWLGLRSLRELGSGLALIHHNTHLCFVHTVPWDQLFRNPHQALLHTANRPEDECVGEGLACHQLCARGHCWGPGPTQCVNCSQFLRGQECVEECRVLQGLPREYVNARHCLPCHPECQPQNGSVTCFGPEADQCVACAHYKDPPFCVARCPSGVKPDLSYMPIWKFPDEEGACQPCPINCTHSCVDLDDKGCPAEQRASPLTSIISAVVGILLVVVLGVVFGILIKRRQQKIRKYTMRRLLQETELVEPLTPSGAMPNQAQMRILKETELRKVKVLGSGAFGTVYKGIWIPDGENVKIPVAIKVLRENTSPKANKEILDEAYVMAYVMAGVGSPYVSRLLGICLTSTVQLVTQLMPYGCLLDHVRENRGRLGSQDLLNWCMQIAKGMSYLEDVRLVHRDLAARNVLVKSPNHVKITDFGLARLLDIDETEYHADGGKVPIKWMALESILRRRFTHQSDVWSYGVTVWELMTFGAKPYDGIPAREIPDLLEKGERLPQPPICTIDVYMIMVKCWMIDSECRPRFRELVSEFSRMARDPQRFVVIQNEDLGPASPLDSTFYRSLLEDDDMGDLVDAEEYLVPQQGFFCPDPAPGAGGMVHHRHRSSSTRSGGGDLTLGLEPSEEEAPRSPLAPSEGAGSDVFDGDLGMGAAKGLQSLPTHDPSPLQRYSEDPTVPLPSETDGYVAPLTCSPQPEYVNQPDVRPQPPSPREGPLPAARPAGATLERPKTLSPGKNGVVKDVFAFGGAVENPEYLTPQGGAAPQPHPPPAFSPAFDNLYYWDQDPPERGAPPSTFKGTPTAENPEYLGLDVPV
Chain of EGFR(D770_N771insSVD) expressing Ba/F3 stable cell line (P00533 with tags, fused parts or gaps DUP768-770): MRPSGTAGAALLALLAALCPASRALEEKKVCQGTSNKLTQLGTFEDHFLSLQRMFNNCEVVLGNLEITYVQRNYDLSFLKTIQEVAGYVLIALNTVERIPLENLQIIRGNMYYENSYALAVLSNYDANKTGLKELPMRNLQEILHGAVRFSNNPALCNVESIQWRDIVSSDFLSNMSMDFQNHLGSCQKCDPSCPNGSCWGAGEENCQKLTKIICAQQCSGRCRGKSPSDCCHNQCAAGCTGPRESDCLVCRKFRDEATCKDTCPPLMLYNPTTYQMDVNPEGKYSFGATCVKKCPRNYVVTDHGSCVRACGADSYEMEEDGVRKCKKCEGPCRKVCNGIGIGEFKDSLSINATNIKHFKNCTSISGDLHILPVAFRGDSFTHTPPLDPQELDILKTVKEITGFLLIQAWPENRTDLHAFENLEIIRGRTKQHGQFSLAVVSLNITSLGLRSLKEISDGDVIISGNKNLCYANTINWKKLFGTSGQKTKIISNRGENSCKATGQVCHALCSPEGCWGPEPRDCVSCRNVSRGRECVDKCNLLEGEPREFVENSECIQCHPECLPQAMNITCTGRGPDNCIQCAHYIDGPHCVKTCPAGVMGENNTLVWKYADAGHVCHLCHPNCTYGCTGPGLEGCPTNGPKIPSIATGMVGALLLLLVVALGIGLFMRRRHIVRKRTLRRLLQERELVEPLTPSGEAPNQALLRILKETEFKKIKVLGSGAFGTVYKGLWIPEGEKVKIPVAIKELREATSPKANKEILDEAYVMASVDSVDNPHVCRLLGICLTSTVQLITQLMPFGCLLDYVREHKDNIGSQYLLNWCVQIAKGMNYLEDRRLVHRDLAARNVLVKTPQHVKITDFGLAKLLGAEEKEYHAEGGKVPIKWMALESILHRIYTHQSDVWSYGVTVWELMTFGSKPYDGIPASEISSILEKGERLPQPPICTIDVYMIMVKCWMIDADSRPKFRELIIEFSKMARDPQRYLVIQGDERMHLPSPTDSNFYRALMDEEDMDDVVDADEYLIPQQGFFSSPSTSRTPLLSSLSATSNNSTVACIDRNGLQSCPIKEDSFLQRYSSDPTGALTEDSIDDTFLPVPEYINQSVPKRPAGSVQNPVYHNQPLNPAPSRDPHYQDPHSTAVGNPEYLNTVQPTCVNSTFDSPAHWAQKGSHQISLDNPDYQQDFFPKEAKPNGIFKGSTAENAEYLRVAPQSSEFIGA
Chain of EGFR (A767_dupASV) expressing Ba/F3 stable cell line (P00533 with tags, fused parts or gaps DUP767-769): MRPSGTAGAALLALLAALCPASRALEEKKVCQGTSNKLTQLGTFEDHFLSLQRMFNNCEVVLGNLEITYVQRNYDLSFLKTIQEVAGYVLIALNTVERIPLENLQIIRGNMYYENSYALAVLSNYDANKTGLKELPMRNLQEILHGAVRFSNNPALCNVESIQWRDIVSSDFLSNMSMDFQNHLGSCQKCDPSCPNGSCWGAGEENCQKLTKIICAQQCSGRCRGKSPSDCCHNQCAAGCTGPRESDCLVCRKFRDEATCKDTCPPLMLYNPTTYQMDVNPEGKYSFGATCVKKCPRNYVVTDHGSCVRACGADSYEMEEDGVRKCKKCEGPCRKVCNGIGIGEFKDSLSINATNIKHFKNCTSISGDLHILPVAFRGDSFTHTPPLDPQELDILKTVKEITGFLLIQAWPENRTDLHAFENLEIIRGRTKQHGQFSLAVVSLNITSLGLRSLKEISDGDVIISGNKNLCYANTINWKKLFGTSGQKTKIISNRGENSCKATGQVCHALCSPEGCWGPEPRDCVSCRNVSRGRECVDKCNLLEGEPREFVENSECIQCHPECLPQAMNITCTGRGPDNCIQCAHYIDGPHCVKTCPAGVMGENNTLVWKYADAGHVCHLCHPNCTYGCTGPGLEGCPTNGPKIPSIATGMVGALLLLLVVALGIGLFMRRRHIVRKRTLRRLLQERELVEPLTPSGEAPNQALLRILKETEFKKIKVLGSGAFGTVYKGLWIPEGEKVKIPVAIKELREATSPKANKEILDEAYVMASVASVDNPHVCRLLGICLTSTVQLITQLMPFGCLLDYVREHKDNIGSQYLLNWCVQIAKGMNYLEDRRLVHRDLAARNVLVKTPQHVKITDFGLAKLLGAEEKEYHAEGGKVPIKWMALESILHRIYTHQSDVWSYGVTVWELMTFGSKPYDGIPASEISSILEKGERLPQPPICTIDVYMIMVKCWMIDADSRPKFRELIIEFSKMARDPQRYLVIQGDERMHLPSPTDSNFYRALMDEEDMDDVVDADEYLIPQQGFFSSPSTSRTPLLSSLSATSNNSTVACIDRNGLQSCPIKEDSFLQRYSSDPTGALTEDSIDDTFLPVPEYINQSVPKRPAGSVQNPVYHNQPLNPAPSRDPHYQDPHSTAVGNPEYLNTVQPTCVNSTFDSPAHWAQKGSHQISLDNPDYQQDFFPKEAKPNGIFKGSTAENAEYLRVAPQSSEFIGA

Structure (SMILES) | IC50 (A431 cells) [µM] | GI50 [1] [µM] | GI50 [2] [µM] | GI50 [3] [µM]
C=CC(=O)Nc1ccc(F)c(Nc2nc(Nc3cnn(C)c3)ncc2-c2c(F)cccc2OC)c1 [Compound 63, N-(4-fluoro-3-((5-(2-fluoro-6-methoxyphenyl)-2-((1-methyl-1H-pyrazol-4-yl)amino)pyrimidin-4-yl)amino)phenyl)acrylamide] | > 10 | 3.27 | 0.884 | 3.09
C=CC(=O)Nc1ccc(F)c(Nc2nc(Nc3cnn(C)c3)ncc2-c2ccc(N3CCC3)c(F)c2)c1 [Compound 80, N-(3-((5-(4-(azetidin-1-yl)-3-fluorophenyl)-2-((1-methyl-1H-pyrazol-4-yl)amino)pyrimidin-4-yl)amino)-4-fluorophenyl)acrylamide] | 0.054 | 0.095 | 0.171 | 0.043
C=CC(=O)Nc1ccc(F)c(Nc2nc(Nc3cnn(CCN(C)C)c3)ncc2-c2ccc(N3CCCCC3)c(F)c2)c1 [Compound 82, N-(3-((2-((1-(2-(dimethylamino)ethyl)-1H-pyrazol-4-yl)amino)-5-(3-fluoro-4-(piperidin-1-yl)phenyl)pyrimidin-4-yl)amino)-4-fluorophenyl)acrylamide] | 0.397 | 0.313 | 0.149 | 0.239
C=CC(=O)Nc1ccc(F)c(Nc2nc(Nc3cnn(C)c3)ncc2-c2ccc(N3CCCCCC3)c(F)c2)c1 [Compound 85, N-(3-((5-(4-(azepan-1-yl)-3-fluorophenyl)-2-((1-methyl-1H-pyrazol-4-yl)amino)pyrimidin-4-yl)amino)-4-fluorophenyl)acrylamide] | 2.82 | 0.314 | 0.884 | 0.268
C=CC(=O)Nc1ccc(F)c(Nc2nc(Nc3cnn(CCOC)c3)ncc2-c2ccc(Br)c(F)c2)c1 [Compound 95, N-(3-((5-(4-bromo-3-fluorophenyl)-2-((1-(2-methoxyethyl)-1H-pyrazol-4-yl)amino)pyrimidin-4-yl)amino)-4-fluorophenyl)acrylamide] | 4.77 | 0.029 | 0.197 | 0.043
C=CC(=O)Nc1ccc(F)c(Nc2nc(Nc3cnn(CCOC)c3)ncc2-c2ccc(F)c(Cl)c2)c1 [Compound 100, N-(3-((5-(3-chloro-4-fluorophenyl)-2-((1-(2-methoxyethyl)-1H-pyrazol-4-yl)amino)pyrimidin-4-yl)amino)-4-fluorophenyl)acrylamide] | 1.2 | 0.274 | 0.86 | 0.301
[2H]C([2H])=CC(=O)Nc1ccc(F)c(Nc2nc(Nc3cnn(C)c3)ncc2-c2ccc(Br)c(F)c2)c1 [Compound 102, N-(3-((5-(4-bromo-3-fluorophenyl)-2-((1-methyl-1H-pyrazol-4-yl)amino)pyrimidin-4-yl)amino)-4-fluorophenyl)acrylamide-3,3-d2] | 0.069 | 0.035 | 0.117 | 0.03
CN(C)C/C=C/C(=O)Nc1ccc(F)c(Nc2nc(Nc3cnn(C)c3)ncc2-c2ccc(Br)c(F)c2)c1 [Compound 105, (E)-N-(3-((5-(4-bromo-3-fluorophenyl)-2-((1-methyl-1H-pyrazol-4-yl)amino)pyrimidin-4-yl)amino)-4-fluorophenyl)-4-(dimethylamino)but-2-enamide] | 0.085 | 0.129 | 0.125 | 0.663
C=CC(=O)Nc1ccc(F)c(Nc2nc(Nc3cn(C)nc3Cl)ncc2-c2cc(F)cc(OC)c2)c1 [Compound 106, N-(3-((2-((3-chloro-1-methyl-1H-pyrazol-4-yl)amino)-5-(3-fluoro-5-methoxyphenyl)pyrimidin-4-yl)amino)-4-fluorophenyl)acrylamide] | 0.125 | 0.285 | 0.568 | 0.035
C=CC(=O)Nc1ccc(F)c(Nc2nc(Nc3cnn(C)c3)ncc2-c2cc(F)cc(Br)c2)c1 [Compound 109, N-(3-((5-(3-bromo-5-fluorophenyl)-2-((1-methyl-1H-pyrazol-4-yl)amino)pyrimidin-4-yl)amino)-4-fluorophenyl)acrylamide] | 0.534 | 0.053 | 0.192 | 0.097
C=CC(=O)Nc1ccc(F)c(Nc2nc(Nc3cnn(C)c3)ncc2-c2cccc(Br)c2F)c1 [Compound 113, N-(3-((5-(3-bromo-2-fluorophenyl)-2-((1-methyl-1H-pyrazol-4-yl)amino)pyrimidin-4-yl)amino)-4-fluorophenyl)acrylamide] | 0.073 | 0.07 | 0.463 | 0.092
CN(C)C/C=C/C(=O)Nc1ccc(F)c(Nc2nc(Nc3cnn(C)c3)ncc2-c2cc(F)cc(F)c2)c1 [Compound 117, (E)-N-(3-((5-(3,5-difluorophenyl)-2-((1-methyl-1H-pyrazol-4-yl)amino)pyrimidin-4-yl)amino)-4-fluorophenyl)-4-(dimethylamino)but-2-enamide] | 0.668 | 0.135 | 0.141 | 0.328
C=CC(=O)Nc1ccc(F)c(Nc2nc(Nc3cnn(C)c3)ncc2-c2cc(F)c(Br)c(Cl)c2)c1 [Compound 123, N-(3-((5-(4-bromo-3-chloro-5-fluorophenyl)-2-((1-methyl-1H-pyrazol-4-yl)amino)pyrimidin-4-yl)amino)-4-fluorophenyl)acrylamide] | 0.071 | 0.04 | 0.066 | 0.05

The next compounds have a lower IC50 (A431 cells) than those just listed; values first:

IC50 (A431 cells) [µM] | GI50 [1] [µM] | GI50 [2] [µM] | GI50 [3] [µM] | Structure (SMILES)
0.011 | 0.015 | 0.059 | 0.031 | C=CC(=O)Nc1ccc(F)c(Nc2nc(Nc3cnn(C)c3)ncc2-c2cc(F)c(Br)c(F)c2)c1 [Compound 91, N-(3-((5-(4-bromo-3,5-difluorophenyl)-2-((1-methyl-1H-pyrazol-4-yl)amino)pyrimidin-4-yl)amino)-4-fluorophenyl)acrylamide]
0.033 | 0.035 | 0.173 | 0.046 | C=CC(=O)Nc1ccc(F)c(Nc2nc(Nc3cnn(C4CCOC4)c3)ncc2-c2ccc(Br)c(F)c2)c1 (stereo not drawn) [Compound 93, N-(3-((5-(4-bromo-3-fluorophenyl)-2-((1-(tetrahydrofuran-3-yl)-1H-pyrazol-4-yl)amino)pyrimidin-4-yl)amino)-4-fluorophenyl)acrylamide]
0.012 | 0.013 | 0.062 | 0.024 | C=CC(=O)Nc1cc(F)cc(Nc2nc(Nc3cnn(C)c3)ncc2-c2ccc(Br)c(F)c2)c1 [Compound 97, N-(3-((5-(4-bromo-3-fluorophenyl)-2-((1-methyl-1H-pyrazol-4-yl)amino)pyrimidin-4-yl)amino)-5-fluorophenyl)acrylamide]
0.017 | 0.034 | 0.064 | 0.044 | C=CC(=O)Nc1ccc(F)c(Nc2nc(Nc3cn(C)nc3Cl)ncc2-c2cc(F)cc(F)c2)c1 [Compound 104, N-(3-((2-((3-chloro-1-methyl-1H-pyrazol-4-yl)amino)-5-(3,5-difluorophenyl)pyrimidin-4-yl)amino)-4-fluorophenyl)acrylamide]
0.023 | 0.039 | 0.243 | 0.096 | C=CC(=O)Nc1ccc(F)c(Nc2nc(Nc3cn(C)nc3Cl)ncc2-c2cc(F)cc(C(F)F)c2)c1 [Compound 108, N-(3-((2-((3-chloro-1-methyl-1H-pyrazol-4-yl)amino)-5-(3-(difluoromethyl)-5-fluorophenyl)pyrimidin-4-yl)amino)-4-fluorophenyl)acrylamide]
0.011 | 0.032 | 0.086 | 0.036 | C=CC(=O)Nc1cccc(Nc2nc(Nc3cnn(C)c3)ncc2-c2ccc(Br)c(F)c2)c1 [Compound 115, N-(3-((5-(4-bromo-3-fluorophenyl)-2-((1-methyl-1H-pyrazol-4-yl)amino)pyrimidin-4-yl)amino)phenyl)acrylamide]
0.006 | 0.011 | 0.049 | 0.021 | C=CC(=O)Nc1cccc(Nc2nc(Nc3cnn(C)c3)ncc2-c2ccc(OC(F)F)c(F)c2)c1 [Compound 124, N-(3-((5-(4-(difluoromethoxy)-3-fluorophenyl)-2-((1-methyl-1H-pyrazol-4-yl)amino)pyrimidin-4-yl)amino)phenyl)acrylamide]
0.043 | 0.04 | 0.153 | 0.1 | C=CC(=O)Nc1ccc(F)c(Nc2nc(Nc3cnn(C)c3)ncc2-c2cc(F)c(F)c(OC)c2)c1 [Compound 126, N-(3-((5-(3,4-difluoro-5-methoxyphenyl)-2-((1-methyl-1H-pyrazol-4-yl)amino)pyrimidin-4-yl)amino)-4-fluorophenyl)acrylamide]
